According to patent publication US9211310B2, “Use of a Chinese medicine composition in preparing medicaments for treating secondary prevention of myocardial infarction” (TASLY PHARMACEUTICAL GROUP CO., LTD, priority 2010, dated 2015):

Test system: patients after acute myocardial infarction
Assay: TCM symptom score, total and single (chest pain, chest tightness, short breath, fatigue, palpitation, spontaneous perspiration, pale complexion), same clinical trial
Assay type: in vivo, human
Settings: for chest pain score 0, number of patients / chest pain score 0, percent of patients / chest pain score 3, number of patients / chest pain score 3, percent of patients / chest pain score 6, number of patients / chest pain score 6, percent of patients / chest pain score 9, number of patients / chest pain score 9, percent of patients / chest tightness score 0, number of patients / chest tightness score 0, percent of patients / chest tightness score 3, number of patients / chest tightness score 3, percent of patients / chest tightness score 6, number of patients / chest tightness score 6, percent of patients / chest tightness score 9, number of patients / chest tightness score 9, percent of patients: 1 month after treatment
From the text: 3508 patients who were in accordance with the diagnostic standards of AMI for 28 days to 2 years and differentiated as Qi deficiency and blood stagnation syndrome by TCM were studied. 0.5 g Chinese medicine composition prepared by the method of EXAMPLE 1 (Coded as QSYQ) was administrated half an hour after meal, 3 times per day.
They included the overall survival time, angina pectoris score, TCM symptom score and life quality score, where angina pectoris score, TCM symptom score and life quality score were evaluated at randomization, in 1st, 3rd, 6th, 9th, 12th month after treatment and 18th month after follow-up.
The analysis method referred to the angina pectoris score.

[1] = 1 month after treatment-baseline, FAS
[2] = 1 month after treatment-baseline, PP
[3] = 3 months after treatment-baseline, FAS
[4] = 3 months after treatment-baseline, PP

CC(=O)Oc1ccccc1C(=O)O [Control group, aspirine]
change of chest pain score 0, number of patients [1]: 1344 | change of chest pain score 0, percent of patients [1]: (78.64%) | change of chest pain score 3, number of patients [1]: 226 | change of chest pain score 3, percent of patients [1]: (13.22%) | change of chest pain score 6, number of patients [1]: 60 | change of chest pain score 6, percent of patients [1]: (3.51%) | change of chest pain score 9, number of patients [1]: 4 | change of chest pain score 9, percent of patients [1]: (0.23%) | change of chest pain score −3, number of patients [1]: 59 | change of chest pain score −3, percent of patients [1]: (3.45%) | change of chest pain score −6, number of patients [1]: 16 | change of chest pain score −6, percent of patients [1]: (0.94%) | change of chest pain score −9, number of patients [1]: 0 | change of chest pain score −9, percent of patients [1]: (0.00%) | change of chest tightness score 0, number of patients [1]: 1302 | change of chest tightness score 0, percent of patients [1]: (76.18%) | change of chest tightness score 3, number of patients [1]: 298 | change of chest tightness score 3, percent of patients [1]: (17.44%) | change of chest tightness score 6, number of patients [1]: 21 | change of chest tightness score 6, percent of patients [1]: (1.23%) | change of chest tightness score 9, number of patients [1]: 5 | change of chest tightness score 9, percent of patients [1]: (0.29%) | change of chest tightness score −3, number of patients [1]: 76 | change of chest tightness score −3, percent of patients [1]: (4.45%) | change of chest tightness score −6, number of patients [1]: 7 | change of chest tightness score −6, percent of patients [1]: (0.41%) | change of chest pain score 0, number of patients [2]: 1146 | change of chest pain score 0, percent of patients [2]: (78.49%) | change of chest pain score 3, number of patients [2]: 197 | change of chest pain score 3, percent of patients [2]: (13.49%) | change of chest pain score 6, number of patients [2]: 52 | change of chest pain score 6, percent of patients [2]: (3.56%) | change of chest pain score 9, number of patients [2]: 3 | change of chest pain score 9, percent of patients [2]: (0.21%) | change of chest pain score −3, number of patients [2]: 50 | change of chest pain score −3, percent of patients [2]: (3.42%) | change of chest pain score −6, number of patients [2]: 12 | change of chest pain score −6, percent of patients [2]: (0.82%) | change of chest pain score −9, number of patients [2]: 0 | change of chest pain score −9, percent of patients [2]: (0.00%) | change of chest tightness score 0, number of patients [2]: 1110 | change of chest tightness score 0, percent of patients [2]: (76.03%) | change of chest tightness score 3, number of patients [2]: 259 | change of chest tightness score 3, percent of patients [2]: (17.74%) | change of chest tightness score 6, number of patients [2]: 19 | change of chest tightness score 6, percent of patients [2]: (1.30%) | change of chest tightness score 9, number of patients [2]: 4 | change of chest tightness score 9, percent of patients [2]: (0.27%) | change of chest tightness score −3, number of patients [2]: 62 | change of chest tightness score −3, percent of patients [2]: (4.25%) | change of chest tightness score −6, number of patients [2]: 6 | change of chest tightness score −6, percent of patients [2]: (0.41%) | chest pain score 0, number of patients (FAS): 608 | chest pain score 0, percent of patients (FAS): (35.41%) | chest pain score 3, number of patients (FAS): 635 | chest pain score 3, percent of patients (FAS): (36.98%) | chest pain score 6, number of patients (FAS): 461 | chest pain score 6, percent of patients (FAS): (26.85%) | chest pain score 9, number of patients (FAS): 13 | chest pain score 9, percent of patients (FAS): (0.76%) | chest tightness score 0, number of patients (FAS): 608 | chest tightness score 0, percent of patients (FAS): (35.41%) | chest tightness score 3, number of patients (FAS): 635 | chest tightness score 3, percent of patients (FAS): (36.98%) | chest tightness score 6, number of patients (FAS): 461 | chest tightness score 6, percent of patients (FAS): (26.85%) | chest tightness score 9, number of patients (FAS): 13 | chest tightness score 9, percent of patients (FAS): (0.76%) | chest pain score 0, number of patients (PP): 515 | chest pain score 0, percent of patients (PP): (35.13%) | chest pain score 3, number of patients (PP): 537 | chest pain score 3, percent of patients (PP): (36.63%) | chest pain score 6, number of patients (PP): 406 | chest pain score 6, percent of patients (PP): (27.69%) | chest pain score 9, number of patients (PP): 8 | chest pain score 9, percent of patients (PP): (0.55%) | chest tightness score 0, number of patients (PP): 515 | chest tightness score 0, percent of patients (PP): (35.13%) | chest tightness score 3, number of patients (PP): 537 | chest tightness score 3, percent of patients (PP): (36.63%) | chest tightness score 6, number of patients (PP): 406 | chest tightness score 6, percent of patients (PP): (27.69%) | chest tightness score 9, number of patients (PP): 8 | chest tightness score 9, percent of patients (PP): (0.55%) | change of chest pain score 0, number of patients [3]: 1203 | change of chest pain score 0, percent of patients [3]: (70.39%) | change of chest pain score 3, number of patients [3]: 325 | change of chest pain score 3, percent of patients [3]: (19.02%) | change of chest pain score 6, number of patients [3]: 76 | change of chest pain score 6, percent of patients [3]: (4.45%) | change of chest pain score 9, number of patients [3]: 6 | change of chest pain score 9, percent of patients [3]: (0.35%) | change of chest pain score −3, number of patients [3]: 79 | change of chest pain score −3, percent of patients [3]: (4.62%) | change of chest pain score −6, number of patients [3]: 20 | change of chest pain score −6, percent of patients [3]: (1.17%) | change of chest pain score −9, number of patients [3]: 0 | change of chest pain score −9, percent of patients [3]: (0.00%) | change of chest tightness score 0, number of patients [3]: 1190 | change of chest tightness score 0, percent of patients [3]: (69.63%) | change of chest tightness score 3, number of patients [3]: 383 | change of chest tightness score 3, percent of patients [3]: (22.41%) | change of chest tightness score 6, number of patients [3]: 37 | change of chest tightness score 6, percent of patients [3]: (2.17%) | change of chest tightness score 9, number of patients [3]: 5 | change of chest tightness score 9, percent of patients [3]: (0.29%) | change of chest tightness score −3, number of patients [3]: 85 | change of chest tightness score −3, percent of patients [3]: (4.97%) | change of chest tightness score −6, number of patients [3]: 8 | change of chest tightness score −6, percent of patients [3]: (0.47%) | change of chest tightness score −9, number of patients [3]: 1 | change of chest tightness score −9, percent of patients [3]: (0.06%) | change of chest pain score 0, number of patients [4]: 1019 | change of chest pain score 0, percent of patients [4]: (70.62%) | change of chest pain score 3, number of patients [4]: 279 | change of chest pain score 3, percent of patients [4]: (19.33%) | change of chest pain score 6, number of patients [4]: 63 | change of chest pain score 6, percent of patients [4]: (4.37%) | change of chest pain score 9, number of patients [4]: 4 | change of chest pain score 9, percent of patients [4]: (0.28%) | change of chest pain score −3, number of patients [4]: 64 | change of chest pain score −3, percent of patients [4]: (4.44%) | change of chest pain score −6, number of patients [4]: 14
